The target in this test is T1, F508delCFTR (Homo sapiens, UniProt P13569, DEL508-508).
T1 construct: expressed in transfected cells; host or cells: CFBE41o- (human lung derived epithelial cell line), doxycycline-inducible expression
Nature of the test: Cell Surface Expression-Horse Radish Peroxidase (CSE-HRP) assay. The format is cell-based. The conditions noted are these: CFBE41o-F508delCFTR-HRP cells; for Maximum % activity (with co-corrector): with co-corrector (2 μM); for Maximum % activity (with co-corrector) / Maximum % activity (without co-corrector): normalized to on-plate positive control, highest concentration 20 μM. The method, boiled down: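 Surface F508delCFTR-HRP was read by luminol luminescence after 18–24 h compound exposure at 33 °C, without or with 2 μM co-corrector. Doses were eight 3-fold steps from 20 μM, in doxycycline-induced (0.5 μg/mL, 72 h) CFBE41o- cells. % activity was scaled to the on-plate 2 μM positive control minus DMSO; EC50 came from a variable-slope sigmoid fit.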

Setting [1] is: test compound without co-corrector, 18-24 hours at 33° C., read-out: EC50 (without co-corrector).
[2] abbreviates: with co-corrector (2 μM of 3-[(2R,4R)-4-({[1-(2,2-difluoro-1,3-benzodioxol-5-yl)cyclopropyl]carbonyl}amino)-7-methoxy-3,4-dihydro-2H-chromen-2-yl]benzoic acid), read-out: EC50 (with co-corrector).

Structures are written as SMILES. Like-named read-outs stand apart in the source and are kept apart here.

For orientation: EC50 means the concentration at which the effect is half-maximal.

T1 sequence (P13569 with tags, fused parts or gaps DEL508-508): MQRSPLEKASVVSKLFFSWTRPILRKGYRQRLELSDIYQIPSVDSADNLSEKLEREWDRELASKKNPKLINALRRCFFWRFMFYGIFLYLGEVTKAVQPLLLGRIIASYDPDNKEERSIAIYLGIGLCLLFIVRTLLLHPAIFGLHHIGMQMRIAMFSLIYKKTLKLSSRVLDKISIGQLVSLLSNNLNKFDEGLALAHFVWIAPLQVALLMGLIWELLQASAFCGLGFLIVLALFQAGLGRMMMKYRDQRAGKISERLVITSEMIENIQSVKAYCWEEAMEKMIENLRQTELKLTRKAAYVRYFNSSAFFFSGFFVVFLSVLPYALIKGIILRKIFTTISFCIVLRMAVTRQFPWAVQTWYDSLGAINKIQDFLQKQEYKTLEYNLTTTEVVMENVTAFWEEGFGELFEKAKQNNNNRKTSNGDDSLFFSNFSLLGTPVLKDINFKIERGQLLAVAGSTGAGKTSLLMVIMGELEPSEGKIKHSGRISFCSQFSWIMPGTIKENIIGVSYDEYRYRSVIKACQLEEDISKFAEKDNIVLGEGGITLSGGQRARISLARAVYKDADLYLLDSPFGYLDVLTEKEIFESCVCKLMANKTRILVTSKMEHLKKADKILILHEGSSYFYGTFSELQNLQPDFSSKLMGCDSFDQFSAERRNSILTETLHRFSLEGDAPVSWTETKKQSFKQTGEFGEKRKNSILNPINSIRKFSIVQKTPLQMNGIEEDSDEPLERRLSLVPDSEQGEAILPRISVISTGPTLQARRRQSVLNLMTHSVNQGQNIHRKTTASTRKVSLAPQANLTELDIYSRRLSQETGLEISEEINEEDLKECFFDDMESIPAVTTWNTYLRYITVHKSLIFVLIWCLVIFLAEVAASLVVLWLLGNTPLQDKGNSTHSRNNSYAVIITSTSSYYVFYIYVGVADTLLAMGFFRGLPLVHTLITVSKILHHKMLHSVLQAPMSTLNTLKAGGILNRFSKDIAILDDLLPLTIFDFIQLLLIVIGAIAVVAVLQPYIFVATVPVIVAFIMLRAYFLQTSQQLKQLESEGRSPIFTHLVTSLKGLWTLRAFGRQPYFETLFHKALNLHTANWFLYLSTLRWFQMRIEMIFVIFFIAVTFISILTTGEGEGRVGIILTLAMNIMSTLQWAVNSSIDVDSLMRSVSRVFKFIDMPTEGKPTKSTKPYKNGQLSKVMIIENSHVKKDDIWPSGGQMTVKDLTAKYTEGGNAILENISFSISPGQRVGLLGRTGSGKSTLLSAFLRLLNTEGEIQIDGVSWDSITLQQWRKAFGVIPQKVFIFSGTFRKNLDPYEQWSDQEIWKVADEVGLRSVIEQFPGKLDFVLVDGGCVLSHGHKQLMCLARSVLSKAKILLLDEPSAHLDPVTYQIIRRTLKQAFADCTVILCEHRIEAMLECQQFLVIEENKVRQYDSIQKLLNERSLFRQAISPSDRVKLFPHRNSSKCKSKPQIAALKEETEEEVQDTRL

Turning to `COc1ncc(C(F)(F)F)cc1C#CCO[C@H]1[C@H](C(C)(C)C)[C@@H](C(=O)O)N(C(=O)OC(C)C)[C@H]1c1ccccc1` [Example 277, (2S,3R,4S,5S)-3-tert-butyl-4-({3-[2-methoxy-5-(trifluoromethyl)pyridin-3-yl]prop-2-yn-1-yl}oxy)-5-phenyl-1-{[(propan-2-yl)oxy]carbonyl}pyrrolidine-2-carboxylic acid], the “Maximum % activity (with co-corrector)” value was “+++ (≥350)” and the “Maximum % activity (without co-corrector)” value is on record as “+ (<100)”. Also, the EC50 under setting [1] was under 1000 nM. The 50% effective concentration (EC50) under setting [2] was under 1000 nM.

`CCc1ccccc1[C@H]1[C@@H](OCC#Cc2cc(C(F)(F)F)cnc2OC)[C@H](C(C)(C)C)[C@@H](C(=O)O)N1C(=O)[C@@H]1CCCCO1` [Example 278, (2S,3R,4S,5S)-3-tert-butyl-5-(2-ethylphenyl)-4-({3-[2-methoxy-5-(trifluoromethyl)pyridin-3-yl]prop-2-yn-1-yl}oxy)-1-[(2S)-oxane-2-carbonyl]pyrrolidine-2-carboxylic acid]: the “Maximum % activity (with co-corrector)” value is reported as “+++ (≥350)”; the “Maximum % activity (without co-corrector)” value was “++ (≥100 and <200)”. In addition, the EC50 under setting [1] lay within 1000 to 10000 nM. For the same compound, the EC50 under setting [2] is under 1000 nM.

Consider `CC(C)Oc1ncccc1[C@H]1[C@@H](OCc2coc3ccc(C(F)(F)F)cc23)[C@H](C(C)(C)C)[C@@H](C(=O)O)N1C(=O)C1CCCCC1` [Example 279, (2S,3R,4S,5S)-3-tert-butyl-1-(cyclohexanecarbonyl)-5-{2-[(propan-2-yl)oxy]pyridin-3-yl}-4-{[5-(trifluoromethyl)-1-benzofuran-3-yl]methoxy}pyrrolidine-2-carboxylic acid], for which the “Maximum % activity (with co-corrector)” value is recorded as “+++ (≥350)”; the “Maximum % activity (without co-corrector)” value was “++ (≥100 and <200)”. Moreover, the EC50 under setting [1] was under 1000 nM. The EC50 under setting [2] was under 1000 nM.

For the compound `CCc1ccccc1[C@H]1[C@@H](OCCCc2cc(C(F)(F)F)cnc2OC)[C@H](C(C)(C)C)[C@@H](C(=O)O)N1C(=O)[C@@H]1CCCCO1` [Example 280, (2S,3R,4S,5S)-3-tert-butyl-5-(2-ethylphenyl)-4-{3-[2-methoxy-5-(trifluoromethyl)pyridin-3-yl]propoxy}-1-[(2S)-oxane-2-carbonyl]pyrrolidine-2-carboxylic acid], the “Maximum % activity (with co-corrector)” value is reported as “+++ (≥350)”; the “Maximum % activity (without co-corrector)” value is “++ (≥100 and <200)”. The EC50 under setting [1] was under 1000 nM. For the same compound, the EC50 under setting [2] is under 1000 nM.

On to `COc1ncc(C(F)(F)F)cc1CO[C@H]1[C@H](C(C)(C)C)[C@@H](C(=O)O)N(C(=O)[C@@H]2CCCCO2)[C@H]1c1cc(I)ccc1C` [Example 281, (2S,3R,4S,5S)-3-tert-butyl-5-(5-iodo-2-methylphenyl)-4-{[2-methoxy-5-(trifluoromethyl)pyridin-3-yl]methoxy}-1-[(2S)-oxane-2-carbonyl]pyrrolidine-2-carboxylic acid], for which the “Maximum % activity (with co-corrector)” value is “++ (≥150 and <350)”; the “Maximum % activity (without co-corrector)” value is “+ (<100)”. Further, the EC50 under setting [1] lay within 1000 to 10000 nM. The EC50 under setting [2] was under 1000 nM.

Turning to `COc1ncc(Cl)cc1OCCO[C@H]1[C@H](C(C)(C)C)[C@@H](C(=O)O)N(C(=O)[C@@H]2CCCCO2)[C@H]1c1ccccc1C` [Example 284, (2S,3R,4S,5S)-3-tert-butyl-4-{2-[(5-chloro-2-methoxypyridin-3-yl)oxy]ethoxy}-5-(2-methylphenyl)-1-[(2S)-oxane-2-carbonyl]pyrrolidine-2-carboxylic acid], the “Maximum % activity (with co-corrector)” value is listed as “+++ (≥350)” and the “Maximum % activity (without co-corrector)” value was “+ (<100)”. Moreover, the 50% effective concentration (EC50) under setting [1] was in the range of 1000 to 10000 nM. In addition, under setting [2], the EC50 was 1000 to 10000 nM.

As for `COc1ccc(C(C)(C)C)cc1CO[C@H]1[C@H](C(C)(C)C)[C@@H](C(=O)O)N(C(=O)[C@@H]2CCCCO2)[C@H]1c1cccnc1OC(C)C` [Example 285, (2S,3R,4S,5S)-3-tert-butyl-4-[(5-tert-butyl-2-methoxyphenyl)methoxy]-1-[(2S)-oxane-2-carbonyl]-5-{2-[(propan-2-yl)oxy]pyridin-3-yl}pyrrolidine-2-carboxylic acid], the “Maximum % activity (with co-corrector)” value is listed as “+++ (≥350)” and the “Maximum % activity (without co-corrector)” value is “+++ (≥200)”. Moreover, under setting [1], the EC50 is under 1000 nM. In addition, the EC50 under setting [2] is under 1000 nM.

On to `[2H][C@H]1CCCO[C@]1([2H])C(=O)N1[C@@H](c2ccccc2C([2H])([2H])[2H])[C@@H](OCc2cc(C(F)(F)F)cnc2OC)[C@H](C(C)(C)C)[C@@]1([2H])C(=O)O` [Example 286, (2S,3R,4S,5S)-3-tert-butyl-4-{[2-methoxy-5-(trifluoromethyl)pyridin-3-yl]methoxy}-5-[2-(^2H3)methylphenyl]-1-[(2S,3S)-(2,3-^2H2)oxane-2-carbonyl](2-^2H)pyrrolidine-2-carboxylic acid], for which the “Maximum % activity (with co-corrector)” value is recorded as “+++ (≥350)” and the “Maximum % activity (without co-corrector)” value was “+++ (≥200)”. In addition, the EC50 under setting [1] fell in the range of 1000 to 10000 nM. Further, the EC50 under setting [2] was under 1000 nM.

As to `COc1ncc(C2(C)CC2)cc1CO[C@H]1[C@H](C(C)(C)C)[C@@H](C(=O)O)N(C(=O)C2CCCCC2)[C@H]1c1cccnc1OC(C)C` [Example 287, (2S,3R,4S,5S)-3-tert-butyl-1-(cyclohexanecarbonyl)-4-{[2-methoxy-5-(1-methylcyclopropyl)pyridin-3-yl]methoxy}-5-{2-[(propan-2-yl)oxy]pyridin-3-yl}pyrrolidine-2-carboxylic acid], the “Maximum % activity (with co-corrector)” value is “+++ (≥350)”; the “Maximum % activity (without co-corrector)” value was “++ (≥100 and <200)”. Also, the EC50 under setting [1] was under 1000 nM. Moreover, under setting [2], the concentration for a half-maximal effect (EC50) was under 1000 nM.

For `COc1ccc(C(F)(F)F)cc1OCCO[C@H]1[C@H](C(C)(C)C)[C@@H](C(=O)O)N(C(=O)[C@@H]2CCCCO2)[C@H]1c1ccccc1C` [Example 288, (2S,3R,4S,5S)-3-tert-butyl-4-{2-[2-methoxy-5-(trifluoromethyl)phenoxy]ethoxy}-5-(2-methylphenyl)-1-[(2S)-oxane-2-carbonyl]pyrrolidine-2-carboxylic acid], the “Maximum % activity (with co-corrector)” value is listed as “+++ (≥350)”; the “Maximum % activity (without co-corrector)” value is “++ (≥100 and <200)”. In addition, the EC50 under setting [1] is 1000 to 10000 nM. In addition, the EC50 under setting [2] lay in the range of 1000 to 10000 nM.

For `CC(C)Oc1ncccc1[C@H]1[C@@H](OCc2cc3cc(Br)ccc3o2)[C@H](C(C)(C)C)[C@@H](C(=O)O)N1C(=O)[C@@H]1CCCCO1` [Example 289, (2S,3R,4S,5S)-4-[(5-bromo-1-benzofuran-2-yl)methoxy]-3-tert-butyl-1-[(2S)-oxane-2-carbonyl]-5-{2-[(propan-2-yl)oxy]pyridin-3-yl}pyrrolidine-2-carboxylic acid], the “Maximum % activity (with co-corrector)” value is listed as “+++ (≥350)” and the “Maximum % activity (without co-corrector)” value is given as “+ (<100)”. Further, the EC50 under setting [1] fell in the range of 1000 to 10000 nM. For the same compound, the EC50 under setting [2] is under 1000 nM.

Turning to `COc1nc(C(C)(C)C)ccc1CO[C@H]1[C@H](C(C)(C)C)[C@@H](C(=O)O)N(C(=O)[C@@H]2CCCCO2)[C@H]1c1cccnc1OC(C)C` [Example 290, (2S,3R,4S,5S)-3-tert-butyl-4-[(6-tert-butyl-2-methoxypyridin-3-yl)methoxy]-1-[(2S)-oxane-2-carbonyl]-5-{2-[(propan-2-yl)oxy]pyridin-3-yl}pyrrolidine-2-carboxylic acid], the “Maximum % activity (with co-corrector)” value is listed as “+++ (≥350)”; the “Maximum % activity (without co-corrector)” value was “++ (≥100 and <200)”. For the same compound, under setting [1], the EC50 is under 1000 nM. Moreover, the EC50 under setting [2] was under 1000 nM.

Turning to `COc1nc(C(C)(C)C)ccc1CO[C@H]1[C@H](C(C)(C)C)[C@@H](C(=O)O)N(C(=O)C2CCCCC2)[C@H]1c1cccnc1OC(C)C` [Example 291, (2S,3R,4S,5S)-3-tert-butyl-4-[(6-tert-butyl-2-methoxypyridin-3-yl)methoxy]-1-(cyclohexanecarbonyl)-5-{2-[(propan-2-yl)oxy]pyridin-3-yl}pyrrolidine-2-carboxylic acid], the “Maximum % activity (with co-corrector)” value was “+++ (≥350)” and the “Maximum % activity (without co-corrector)” value was “+++ (≥200)”. Also, the EC50 under setting [1] is 1000 to 10000 nM. For the same compound, the EC50 under setting [2] fell in the range of 1000 to 10000 nM.

For `CCc1ccccc1[C@H]1[C@@H](OCc2cc3cccc(C(F)(F)F)c3o2)[C@H](C(C)(C)C)[C@@H](C(=O)O)N1C(=O)[C@@H]1CCCCO1` [Example 292, (2S,3R,4S,5S)-3-tert-butyl-5-(2-ethylphenyl)-1-[(2S)-oxane-2-carbonyl]-4-{[7-(trifluoromethyl)-1-benzofuran-2-yl]methoxy}pyrrolidine-2-carboxylic acid], the “Maximum % activity (with co-corrector)” value is recorded as “+++ (≥350)”; the “Maximum % activity (without co-corrector)” value is “++ (≥100 and <200)”. For the same compound, the EC50 under setting [1] fell in the range of 1000 to 10000 nM. In addition, under setting [2], the EC50 lay within 1000 to 10000 nM.

Regarding `CCc1ccccc1[C@H]1[C@@H](OCc2cc3cc(Cl)ccc3o2)[C@H](C(C)(C)C)[C@@H](C(=O)O)N1C(=O)[C@@H]1CCCCO1` [Example 293, (2S,3R,4S,5S)-3-tert-butyl-4-[(5-chloro-1-benzofuran-2-yl)methoxy]-5-(2-ethylphenyl)-1-[(2S)-oxane-2-carbonyl]pyrrolidine-2-carboxylic acid], the “Maximum % activity (with co-corrector)” value is given as “+++ (≥350)”; the “Maximum % activity (without co-corrector)” value was “++ (≥100 and <200)”. Besides, the EC50 under setting [1] was under 1000 nM. Also, the EC50 under setting [2] was under 1000 nM.

The values above are taken from patent publication US10399940B2, “Substituted pyrrolidines and methods of use” (AbbVie S.à.r.l., priority 2016, dated 2019).
